# Measurements from patent US9403823B2, “Protein kinase inhibitors” (ORIBASE PHARMA, priority 2012, dated 2016).
# pEC50: −log10 of the molar value. Like-named read-outs stand apart in the source and are kept apart here.
# Legend:
# BRAF = molecular target: T1, BRAF (Homo sapiens, UniProt P15056); assay: In vitro kinase assay (Z'-LYTE), BRAF; assay type: biochemical; settings: read-out: % of inhibition of the kinase compared to the control
# T1 construct: purchased Invitrogen
# Experimental: (§1) 1) In Vitro Kinase Assays (Table 10 to Table 21)
# (§2) The inhibitory activity of the compounds on several kinases including BRAF, EGFR (ErbB1), EGFR (ErbB1) T790M L858R, FGFR2, KDR (VEGFR2), PDGFRA (PDGFR alpha), SRC and other was evaluated by Invitrogen using the Z′-LYTE® technology. Briefly, the Z′-LYTE® biochemical assay employs a fluorescence-based, coupled-enzyme format and is based on the differential sensitivity of phosphorylated and non-phosphorylated peptides to proteolytic cleavage. The peptide substrate is labeled with two fluorophores—one at each end—that make up a FRET pair. A ratiometric method, which calculates the ratio (the Emission Ratio) of donor emission to acceptor emission after excitation of the donor fluorophore at 400 nm, is used to quantitate reaction progress.
# (§3) The compounds are screened in 1% DMSO (final) in the well. For 10 point titrations, 3-fold serial dilutions are conducted from the starting concentration. All Peptide/Kinase Mixtures are diluted to a 2× working concentration in the appropriate Kinase Buffer. All ATP Solutions are diluted to a 4× working concentration in Kinase Buffer (50 mM HEPES pH 7.5, 0.01% BRIJ-35, 10 mM MgCl2, 1 mM EGTA). ATP Km apparent is previously determined using a Z′-LYTE® assay.
# (§4) Each compound was incubated at a concentration of 100 nM (excepted to test the activity against ABL and ABL T315I for which the compounds were incubated at a concentration of 10 μM) and the tables 10 to 21 summarize the results obtained showing the inhibitory power of a compound.
# EGFR (ErbB1) = molecular target: T2, EGFR (ErbB1) (Homo sapiens, UniProt P00533); assay: In vitro kinase assay (Z'-LYTE), EGFR (ErbB1); assay type: biochemical; settings: read-out: % of inhibition of the kinase compared to the control
# T2 construct: purchased Invitrogen
# Experimental: as §1, §2, §3, §4
# FGFR2 = molecular target: T3, FGFR2 (Homo sapiens, UniProt P21802); assay: In vitro kinase assay (Z'-LYTE), FGFR2; assay type: biochemical; settings: read-out: % of inhibition of the kinase compared to the control
# T3 construct: purchased Invitrogen
# T3 sequence (P21802 22-821): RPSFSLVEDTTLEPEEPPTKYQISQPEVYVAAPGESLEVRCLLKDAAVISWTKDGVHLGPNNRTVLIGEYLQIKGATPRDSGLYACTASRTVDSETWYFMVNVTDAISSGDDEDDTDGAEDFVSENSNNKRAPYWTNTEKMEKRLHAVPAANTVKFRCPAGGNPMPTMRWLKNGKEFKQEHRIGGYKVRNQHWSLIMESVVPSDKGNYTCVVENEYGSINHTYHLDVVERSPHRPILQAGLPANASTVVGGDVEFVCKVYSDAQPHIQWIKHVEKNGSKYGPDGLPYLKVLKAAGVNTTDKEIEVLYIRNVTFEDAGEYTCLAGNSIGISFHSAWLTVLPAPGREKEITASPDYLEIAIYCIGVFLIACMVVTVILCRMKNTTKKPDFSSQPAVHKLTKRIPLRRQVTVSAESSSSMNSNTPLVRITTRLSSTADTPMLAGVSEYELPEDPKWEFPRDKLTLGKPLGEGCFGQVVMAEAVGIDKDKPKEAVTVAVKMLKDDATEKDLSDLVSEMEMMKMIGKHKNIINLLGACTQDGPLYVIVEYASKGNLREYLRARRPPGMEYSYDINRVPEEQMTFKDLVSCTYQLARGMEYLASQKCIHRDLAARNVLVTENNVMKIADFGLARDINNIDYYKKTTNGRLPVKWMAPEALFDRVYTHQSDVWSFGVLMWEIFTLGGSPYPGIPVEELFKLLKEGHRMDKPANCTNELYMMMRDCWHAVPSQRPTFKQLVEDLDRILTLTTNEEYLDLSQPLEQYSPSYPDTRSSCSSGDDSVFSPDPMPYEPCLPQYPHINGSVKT
# Experimental: as §1, §2, §3, §4
# KDR (VEGFR2) = molecular target: T4, KDR (VEGFR2) (Homo sapiens, UniProt P35968); assay: In vitro kinase assay (Z'-LYTE), KDR (VEGFR2); assay type: biochemical; settings: read-out: % of inhibition of the kinase compared to the control
# T4 construct: purchased Invitrogen
# T4 sequence (P35968 20-1356): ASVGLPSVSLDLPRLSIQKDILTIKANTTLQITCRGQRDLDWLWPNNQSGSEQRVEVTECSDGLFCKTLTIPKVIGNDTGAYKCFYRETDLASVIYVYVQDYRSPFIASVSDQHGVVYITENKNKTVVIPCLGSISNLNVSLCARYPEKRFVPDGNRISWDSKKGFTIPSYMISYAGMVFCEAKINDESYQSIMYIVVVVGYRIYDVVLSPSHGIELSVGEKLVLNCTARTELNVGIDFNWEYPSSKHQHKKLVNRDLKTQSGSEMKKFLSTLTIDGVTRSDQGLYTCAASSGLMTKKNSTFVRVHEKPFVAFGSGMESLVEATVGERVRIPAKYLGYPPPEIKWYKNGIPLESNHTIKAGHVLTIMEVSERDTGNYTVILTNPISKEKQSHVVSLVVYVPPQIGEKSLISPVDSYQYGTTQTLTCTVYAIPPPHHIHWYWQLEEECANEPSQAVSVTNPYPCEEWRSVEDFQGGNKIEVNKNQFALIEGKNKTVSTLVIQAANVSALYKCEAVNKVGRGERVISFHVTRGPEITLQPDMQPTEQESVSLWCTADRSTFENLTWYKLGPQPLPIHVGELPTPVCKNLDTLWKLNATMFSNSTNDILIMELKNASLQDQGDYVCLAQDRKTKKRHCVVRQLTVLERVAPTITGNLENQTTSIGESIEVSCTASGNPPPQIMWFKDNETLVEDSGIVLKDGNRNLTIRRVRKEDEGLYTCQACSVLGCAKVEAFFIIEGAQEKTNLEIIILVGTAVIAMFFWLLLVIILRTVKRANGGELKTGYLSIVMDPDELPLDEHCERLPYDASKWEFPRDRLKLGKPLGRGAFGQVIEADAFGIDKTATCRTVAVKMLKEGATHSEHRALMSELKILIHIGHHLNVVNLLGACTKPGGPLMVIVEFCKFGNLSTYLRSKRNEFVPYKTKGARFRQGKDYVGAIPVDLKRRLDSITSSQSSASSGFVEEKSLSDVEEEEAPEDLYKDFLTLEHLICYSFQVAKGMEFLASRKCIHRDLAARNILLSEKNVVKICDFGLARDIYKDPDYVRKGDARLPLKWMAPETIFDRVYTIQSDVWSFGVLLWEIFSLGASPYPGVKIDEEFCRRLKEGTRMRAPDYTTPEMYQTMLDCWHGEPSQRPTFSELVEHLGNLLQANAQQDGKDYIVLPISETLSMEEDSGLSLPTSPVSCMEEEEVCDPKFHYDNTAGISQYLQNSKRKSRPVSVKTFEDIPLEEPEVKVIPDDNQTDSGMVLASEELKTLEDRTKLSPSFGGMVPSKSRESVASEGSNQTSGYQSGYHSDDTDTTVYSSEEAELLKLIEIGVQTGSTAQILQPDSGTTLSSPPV
# Experimental: as §1, §2, §3, §4
# PDGFRA (PDGFR alpha) = molecular target: T5, PDGFRA (PDGFR alpha) (Homo sapiens, UniProt P16234); assay: In vitro kinase assay (Z'-LYTE), PDGFRA; assay type: biochemical; settings: read-out: % of inhibition of the kinase compared to the control
# T5 construct: purchased Invitrogen
# T5 sequence (P16234 24-1089): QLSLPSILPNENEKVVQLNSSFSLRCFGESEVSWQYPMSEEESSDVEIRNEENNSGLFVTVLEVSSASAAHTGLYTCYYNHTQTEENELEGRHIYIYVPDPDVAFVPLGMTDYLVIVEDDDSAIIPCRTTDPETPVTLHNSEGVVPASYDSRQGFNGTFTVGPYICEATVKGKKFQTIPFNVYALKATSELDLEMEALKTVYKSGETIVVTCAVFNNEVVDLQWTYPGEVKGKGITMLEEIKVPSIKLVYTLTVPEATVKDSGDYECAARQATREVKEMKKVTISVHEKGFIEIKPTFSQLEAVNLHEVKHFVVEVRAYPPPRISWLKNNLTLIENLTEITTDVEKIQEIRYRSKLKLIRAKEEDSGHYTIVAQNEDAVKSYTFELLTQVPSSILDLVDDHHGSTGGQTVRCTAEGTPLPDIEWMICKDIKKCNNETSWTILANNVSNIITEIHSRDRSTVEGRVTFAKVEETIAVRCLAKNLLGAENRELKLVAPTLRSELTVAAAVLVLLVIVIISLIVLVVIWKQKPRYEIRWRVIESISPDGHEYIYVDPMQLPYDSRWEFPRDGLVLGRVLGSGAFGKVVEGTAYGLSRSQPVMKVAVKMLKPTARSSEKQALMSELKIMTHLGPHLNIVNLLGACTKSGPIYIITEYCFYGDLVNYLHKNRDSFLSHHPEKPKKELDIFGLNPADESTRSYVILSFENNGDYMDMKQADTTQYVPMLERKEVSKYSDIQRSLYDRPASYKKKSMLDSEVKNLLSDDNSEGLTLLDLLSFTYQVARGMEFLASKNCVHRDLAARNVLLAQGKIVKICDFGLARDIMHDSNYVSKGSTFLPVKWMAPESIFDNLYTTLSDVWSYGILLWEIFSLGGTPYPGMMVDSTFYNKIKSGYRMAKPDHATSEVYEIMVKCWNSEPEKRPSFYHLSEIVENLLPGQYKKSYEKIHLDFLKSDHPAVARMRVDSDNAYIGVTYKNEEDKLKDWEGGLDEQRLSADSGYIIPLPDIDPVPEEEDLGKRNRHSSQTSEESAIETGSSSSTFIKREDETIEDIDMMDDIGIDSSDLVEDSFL
# Experimental: as §1, §2, §3, §4
# SRC = molecular target: T6, SRC (Homo sapiens, UniProt P12931); assay: In vitro kinase assay (Z'-LYTE), SRC; assay type: biochemical; settings: read-out: % of inhibition of the kinase compared to the control
# T6 construct: purchased Invitrogen
# T6 sequence (P12931 whole entry): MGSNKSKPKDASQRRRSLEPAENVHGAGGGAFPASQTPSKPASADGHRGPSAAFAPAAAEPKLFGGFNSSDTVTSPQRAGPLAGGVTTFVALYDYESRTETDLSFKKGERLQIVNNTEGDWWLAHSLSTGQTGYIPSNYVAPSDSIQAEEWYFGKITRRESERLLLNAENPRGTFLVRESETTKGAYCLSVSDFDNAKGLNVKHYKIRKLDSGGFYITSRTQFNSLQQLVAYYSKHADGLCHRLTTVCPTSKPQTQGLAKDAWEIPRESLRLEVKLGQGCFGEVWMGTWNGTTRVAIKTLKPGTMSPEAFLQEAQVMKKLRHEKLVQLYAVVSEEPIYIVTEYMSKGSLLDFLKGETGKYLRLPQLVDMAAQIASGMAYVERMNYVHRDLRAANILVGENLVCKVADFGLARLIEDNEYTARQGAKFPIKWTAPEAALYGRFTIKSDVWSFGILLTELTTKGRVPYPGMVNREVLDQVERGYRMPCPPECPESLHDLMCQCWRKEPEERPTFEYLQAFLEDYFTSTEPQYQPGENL
# Experimental: as §1, §2, §3, §4
# HepG2 cell line = assay: In vitro cell proliferation assay (MTT), HepG2; assay type: cell-based; settings: Homo sapiens, read-out: EC50, anti-proliferative activity
# Experimental: (§5) 2) In Vitro Cell Proliferation Assays (Table 22 to Table 35)
# (§6) Cancer cell lines (5×10^3 cells per well) or HUVEC (1×10^4 cells per well) or HRMEC (1×10^4 cells per well) were distributed in 96-well plates and incubating in duplicate with escalating concentrations (10 nM to 3 μM) of compounds for 72 hr. Cell proliferation was measured using MTT (3[4,5-dimethylthiazol-2-yl]-2,5-diphenyltetrazolium bromide).
# HUVEC = assay: In vitro cell proliferation assay (MTT), HUVEC; assay type: cell-based; settings: Homo sapiens, read-out: EC50, anti-proliferative activity
# Experimental: as §5, §6
# T1 sequence (P15056 whole entry): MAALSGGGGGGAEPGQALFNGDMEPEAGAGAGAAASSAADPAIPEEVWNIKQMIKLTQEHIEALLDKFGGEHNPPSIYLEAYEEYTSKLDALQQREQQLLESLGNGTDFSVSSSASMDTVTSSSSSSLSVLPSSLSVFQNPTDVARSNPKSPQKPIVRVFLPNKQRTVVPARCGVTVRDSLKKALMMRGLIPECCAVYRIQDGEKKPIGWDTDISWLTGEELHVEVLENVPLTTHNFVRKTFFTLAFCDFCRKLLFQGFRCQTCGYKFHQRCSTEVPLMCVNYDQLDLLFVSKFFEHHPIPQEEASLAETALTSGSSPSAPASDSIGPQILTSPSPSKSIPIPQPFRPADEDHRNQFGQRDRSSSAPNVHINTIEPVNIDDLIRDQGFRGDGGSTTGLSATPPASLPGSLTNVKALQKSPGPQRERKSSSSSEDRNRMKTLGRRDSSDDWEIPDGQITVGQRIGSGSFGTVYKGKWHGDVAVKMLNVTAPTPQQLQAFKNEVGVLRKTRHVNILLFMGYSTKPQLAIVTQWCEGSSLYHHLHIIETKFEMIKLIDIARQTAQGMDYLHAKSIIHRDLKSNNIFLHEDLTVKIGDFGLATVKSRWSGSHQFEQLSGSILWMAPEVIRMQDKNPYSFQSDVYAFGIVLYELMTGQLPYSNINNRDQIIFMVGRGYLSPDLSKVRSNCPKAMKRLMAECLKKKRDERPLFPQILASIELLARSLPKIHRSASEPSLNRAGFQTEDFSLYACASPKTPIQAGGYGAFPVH
Structure (SMILES),inhibition at 0.1 µM (BRAF) [%],inhibition at 0.1 µM (EGFR (ErbB1)) [%],inhibition at 0.1 µM (FGFR2) [%],inhibition at 0.1 µM (KDR (VEGFR2)) [%],inhibition at 0.1 µM (PDGFRA (PDGFR alpha)) [%],inhibition at 0.1 µM (SRC) [%],"pEC50 (HepG2 cell line; HepG2, 72 hr, MTT)","pEC50 (HUVEC; 72 hr, MTT)","pEC50 (HepG2 cell line; HepG2, 72 h)",pEC50 (HUVEC; 72 h)
"CC(=O)c1cc2cc(NCc3cc(NC(=O)c4ccc5[nH]nnc5c4)ccc3C)cnc2[nH]1 [OR0979, 1H-Benzotriazole-5-carboxylic acid {3-[(2-acetyl-1H-pyrrolo[2,3-b]pyridin-5-ylamino)-methyl]-4-methyl-phenyl}-amide]",≥ 50,< 50,< 50,< 50,≥ 50,< 50,≤ 6.00,≤ 6.00,,
"CC(=O)c1cc2cc(NCc3cc(NC(=O)Nc4cccnc4)ccc3C)cnc2[nH]1 [OR0897, 1-{3-[(2-Acetyl-1H-pyrrolo[2,3-b]pyridin-5-ylamino)-methyl]-4-methyl-phenyl}-3-pyridin-3-yl-urea]",≥ 50,< 50,< 50,< 50,≥ 50,< 50,,≤ 6.00,≥ 7.00,
"CC(=O)c1cc2cc(NCc3cc(NC(=O)c4ccc5[nH]ccc5c4)ccc3C)cnc2[nH]1 [OR0980, 1H-Indole-5-carboxylic acid {3-[(2-acetyl-1H-pyrrolo[2,3-b]pyridin-5-ylamino)-methyl]-4-methyl-phenyl}-amide]",≥ 50,< 50,< 50,< 50,≥ 50,< 50,,≤ 6.00,6.00 to 7.00,
"CC(=O)c1cc2cc(NCc3cccc(NC(=O)c4ccc(CN5CC[C@H](N(C)C)C5)c(C(F)(F)F)c4)c3)cnc2[nH]1 [OR0927, N-{3-[(2-Acetyl-1H-pyrrolo[2,3-b]pyridin-5-ylamino)-methyl]-phenyl}-4-((S)-3-dimethylamino-pyrrolidin-1-ylmethyl)-3-trifluoromethyl-benzamide]",< 50,≥ 50,≥ 50,≥ 50,,,,,6.00 to 7.00,6.00 to 7.00
"CC(=O)c1cc2cc(NCc3cc(NC(=O)c4ccc(CN5CC[C@H](N(C)C)C5)c(C(F)(F)F)c4)ccc3F)cnc2[nH]1 [OR0971, N-{3-[(2-Acetyl-1H-pyrrolo[2,3-b]pyridin-5-ylamino)-methyl]-4-fluoro-phenyl}-4-((S)-3-dimethylamino-pyrrolidin-1-ylmethyl)-3-trifluoromethyl-benzamide]",< 50,≥ 50,≥ 50,≥ 50,,,,≤ 6.00,6.00 to 7.00,
"Cc1ccc(NC(=O)c2ccc(CN3CCN(C)CC3)c(C(F)(F)F)c2)cc1C(=O)Nc1cnc2[nH]c(C(=O)O)cc2c1 [OR0810, 5-{2-Methyl-5-[4-(4-methyl-piperazin-1-ylmethyl)-3-trifluoromethyl-benzoylamino]-benzoylamino}-1H-pyrrolo[2,3-b]pyridine-2-carboxylic acid]",< 50,≥ 50,≥ 50,≥ 50,,,,,,
"CC(=O)c1cc2cc(NCc3cc(NC(=O)c4ccc(CN5CCC(N(C)C)C5)c(F)c4)ccc3C)cnc2[nH]1 (stereo not shown) [OR0973, N-{3-[(2-Acetyl-1H-pyrrolo[2,3-b]pyridin-5-ylamino)-methyl]-4-methyl-phenyl}-4-(3-dimethylamino-pyrrolidin-1-ylmethyl)-3-fluoro-benzamide]",≥ 50,≥ 50,< 50,≥ 50,,,,≤ 6.00,6.00 to 7.00,
"CC(=O)c1cc2cc(NCc3cc(NC(=O)c4ccnc(C)c4)ccc3C)cnc2[nH]1 [OR0889, N-{3-[(2-Acetyl-1H-pyrrolo[2,3-b]pyridin-5-ylamino)-methyl]-4-methyl-phenyl}-2-methyl-isonicotinamide]",≥ 50,< 50,< 50,< 50,≥ 50,< 50,≤ 6.00,,,6.00 to 7.00
"CC(=O)c1cc2cc(NCc3cc(NC(=O)c4ccnc(C(F)(F)F)c4)ccc3C)cnc2[nH]1 [OR0887, N-{3-[(2-Acetyl-1H-pyrrolo[2,3-b]pyridin-5-ylamino)-methyl]-4-methyl-phenyl}-2-trifluoromethyl-isonicotinamide]",≥ 50,< 50,< 50,≥ 50,,,,,,6.00 to 7.00
"CC(=O)c1cc2cc(NCc3cc(NC(=O)c4cncc(C(F)(F)F)c4)ccc3F)cnc2[nH]1 [OR0970, N-{5-[(2-Acetyl-1H-pyrrolo[2,3-b]pyridin-5-ylamino)-methyl]-4-fluoro-phenyl}-5-trifluoromethyl-nicotinamide]",≥ 50,< 50,< 50,≥ 50,,,,≤ 6.00,6.00 to 7.00,
"CC(=O)c1cc2cc(NCc3cccc(C(=O)Nc4cccnc4)c3)cnc2[nH]1 [OR0917, 3-[(2-Acetyl-1H-pyrrolo[2,3-b]pyridin-5-ylamino)-methyl]-N-pyridin-3-yl-benzamide]",< 50,≥ 50,≥ 50,≥ 50,,,≤ 6.00,≤ 6.00,,
"Cc1ccc(NC(=O)c2ccc(CN3CC[C@H](N(C)C)C3)c(C(F)(F)F)c2)cc1CNc1cnc2[nH]c(C(=O)O)cc2c1 [OR0814, 5-{5-[4-((S)-3-Dimethylamino-pyrrolidin-1-ylmethyl)-3-trifluoromethyl-benzoylamino]-2-methyl-benzylamino}-1H-pyrrolo[2,3-b]pyridine-2-carboxylic acid]",< 50,≥ 50,≥ 50,≥ 50,,,,,,
"CC(=O)c1cc2cc(NCc3cc(NC(=O)c4cccc(C(F)(F)F)c4)ccc3C)cnc2[nH]1 [OR0893, N-{3-[(2-Acetyl-1H-pyrrolo[2,3-b]pyridin-5-ylamino)-methyl]-4-methyl-phenyl}-3-trifluoromethyl-benzamide]",≥ 50,≥ 50,< 50,≥ 50,,,,,≥ 7.00,6.00 to 7.00
"CC(=O)c1cc2cc(NC(=O)c3cccc(CNC(=O)c4ccc(CN5CCN(C)CC5)c(C(F)(F)F)c4)c3)cnc2[nH]1 [OR0984, N-[3-(2-Acetyl-1H-pyrrolo[2,3-b]pyridin-5-ylcarbamoyl)-benzyl]-4-(4-methyl-piperazin-1-ylmethyl)-3-trifluoromethyl-benzamide]",< 50,< 50,< 50,< 50,< 50,< 50,≤ 6.00,,,
"CC(=O)c1cc2cc(NCc3cc(NC(=O)c4ccc(C(F)(F)F)nc4)ccc3C)cnc2[nH]1 [OR0886, N-{3-[(2-Acetyl-1H-pyrrolo[2,3-b]pyridin-5-ylamino)-methyl]-4-methyl-phenyl}-6-trifluoromethyl-nicotinamide]",< 50,,< 50,< 50,≥ 50,< 50,≤ 6.00,,,6.00 to 7.00
"CC(=O)c1cc2cc(NCc3ccc(F)c(NC(=O)c4cncc(C(F)(F)F)c4)c3)cnc2[nH]1 [OR0894, N-{5-[(2-Acetyl-1H-pyrrolo[2,3-b]pyridin-5-ylamino)-methyl]-2-fluoro-phenyl}-5-trifluoromethyl-nicotinamide]",≥ 50,< 50,≥ 50,≥ 50,,,,≤ 6.00,,
